Experimental findings from patent publication US11987608B2, “Composition for accelerating cell proliferation comprising erythropoietin-derived peptide” (SYLUS CO., LTD., priority 2018, dated 2024) are described below.

Where two headings read alike, the source gives them in different places. No end group written: not given here.

Assay [1] addresses T1, Soluble mouse EPOR chimera proteins (Mus musculus, UniProt P14753).
T1 construct: Soluble mouse EPOR chimera proteins; purchased R&D Systems
T1 sequence (P14753 25-249 limits assumed): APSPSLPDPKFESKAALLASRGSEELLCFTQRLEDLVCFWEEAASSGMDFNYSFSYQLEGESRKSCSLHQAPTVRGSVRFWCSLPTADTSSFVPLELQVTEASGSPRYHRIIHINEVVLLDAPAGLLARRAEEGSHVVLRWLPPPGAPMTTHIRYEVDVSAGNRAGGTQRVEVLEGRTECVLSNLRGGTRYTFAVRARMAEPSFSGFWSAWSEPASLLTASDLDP
The assay can be described thus: SPR binding affinity of erythropoietin-derived peptides to erythropoietin receptor. Particulars: for koff: read-out: Kd (dissociation rate); for kon: read-out: Ka (association rate). How it is done:
The SPR technique is to measure interactions between biomolecules in real-time by using an optical principle without specific labeling, and is a system analyzing affinity between two molecules and kinetics, i.e., an association rate (Ka) and a dissociation rate (Kd).
In detail, real-time SPR analysis was performed using Reichert SPR Biosensor SR 7500C instrument (Reichert Inc., NY, USA). Soluble mouse EPOR chimera proteins (R&D Systems, Minneapolis, MN, USA) were covalently linked to a carboxymethylated dextran matrix-coated chip (BR-1005-39, Pharmacia Biosensor AB) by an amine coupling procedure using an amine coupling kit (BR-1000-50, GE Healthcare, USA) in accordance with manufacturer's instructions. Each 5 μM, 2.5 μM, and 1.25 μM of the peptide samples of the present disclosure and scrambled peptides were applied at a flow rate of 5 μl/minute, and the experiments were independently performed in duplicate. For signal normalization, DMSO was applied at a flow rate of 5 μl/minute, and after each binding cycle, the sensor chip was regenerated by injecting 25 mM acetic acid at a flow rate of 20 μl/minute.

For assay [2], the system named is PC12 cells. As to the kind of experiment: Comparison of cell protective and proliferative effects to EPO by K-means clustering. The format is cell-based. Particulars: FIG. 9.
For the next assay, the target named is T2, erythropoietin receptor (Homo sapiens, UniProt P19235).
T2 construct: expressed in transfected cells
T2 sequence (P19235 25-508): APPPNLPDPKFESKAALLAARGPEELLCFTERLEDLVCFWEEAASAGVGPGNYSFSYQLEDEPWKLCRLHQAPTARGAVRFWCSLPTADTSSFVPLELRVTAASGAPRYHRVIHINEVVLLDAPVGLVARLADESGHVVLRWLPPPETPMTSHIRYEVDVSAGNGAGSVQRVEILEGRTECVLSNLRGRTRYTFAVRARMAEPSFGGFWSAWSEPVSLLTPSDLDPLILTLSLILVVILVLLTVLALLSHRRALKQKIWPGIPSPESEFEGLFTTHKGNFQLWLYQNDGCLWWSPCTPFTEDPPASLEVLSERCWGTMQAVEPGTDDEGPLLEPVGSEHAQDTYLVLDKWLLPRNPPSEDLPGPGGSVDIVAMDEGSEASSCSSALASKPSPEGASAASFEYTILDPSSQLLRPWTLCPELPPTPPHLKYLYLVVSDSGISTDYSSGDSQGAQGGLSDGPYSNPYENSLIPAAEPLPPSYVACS
As to the kind of experiment: Erythropoietin receptor activation through ERK1/2 phosphorylation (western blot) in HEK 293 cells expressing EPOR-GFP. The format is cell-based. The settings on record: FIG. 12; for character of erythropoietin receptor activation: ERK1/2 phosphorylation.

Assay [3] deals with PC12 cells. As to the kind of experiment: Cell proliferation, MTT assay. It is filed as cell-based. Particulars: 10 ng/ml peptide, 24 hours, FIG. 7. How it is done: To determine the side effect, such as cell proliferation, of the peptides prepared in Examples 1 to 3, cell viability was evaluated by an MTT assay.
In detail, PC12 cells were cultured in a DMEM (Dulbecco's Modified Eagle's Medium) medium (Hyclone, USA) and an RPM11640 medium (Hyclone, UT, USA), each supplemented with 10% fetal bovine serum (FBS, Hyclone, Utah, USA), 100 unit/ml penicillin, and 100 μg/ml streptomycin (Hyclone, UT, USA) in an incubator supplied with 5% CO2 and under a condition of 37° C. PC12 cell lines were seeded in a 96-well plate at a density of 5×10^4 cells/ml, and cultured under conditions of 37° C. and 5% CO2 for 24 hours. Thereafter, the cells were treated with each of the peptides of Examples 1 to 3, which were prepared at a concentration of 10 ng/ml, followed by incubation for 24 hours. Thereafter, 20 μl of 5 mg/ml 3-[4,5-dimethyl-thiazol]-2,5-diphenyl-tetrazolium bromide (MTT) reagent was added thereto, and allowed to react for 2 hours. After reaction, 200 μl of dimethyl sulfoxide (DMSO, Duksan, Gyeonggi-do, Korea) was added thereto to completely dissolve formed formazan, and absorbance at 570 nm was measured using a microplate reader (Molecular Devices, CA, USA).

In a further assay the test system is mice. The assay can be described thus: In vivo hematopoietic activity, blood test. On the set-up: species or system mouse. How it is done: In vivo hematopoietic activities in a mouse were measured for the peptides prepared in Example 5, MLP, MLP-C, and MLP-H.
In detail, the prepared peptide or scrambled (Scr) peptide as a negative control group was administered by intraperitoneal injection to mice at a dose of 0 μg/kg, 1 μg/kg, or 100 μg/kg repeatedly, everyday over 14 days. Thereafter, a body weight test and a blood test were performed.

The mark [4] stands for this setting: sampling at 0, 30, 60, 90 minutes.
The mark [5] stands for this setting: 100 μg/kg intraperitoneal daily over 14 days.

For `CC[C@H](C)[C@H](NC(=O)[C@H](C)NC(=O)[C@H](CCC(=O)O)NC(=O)[C@H](CCCCN)NC(=O)[C@H](CCC(N)=O)NC(=O)[C@H](C)NC(=O)CNC(=O)[C@H](CC(C)C)NC(=O)[C@H](C)NC(=O)[C@H](CCCNC(=N)N)NC(=O)[C@H](CC(C)C)NC(=O)[C@H](CC(C)C)NC(=O)[C@@H](NC(=O)[C@@H](NC(=O)[C@H](CC(C)C)NC(=O)[C@H](CO)NC(=O)[C@H](CCCNC(=N)N)NC(=O)[C@H](CC(C)C)NC(=O)CNC(=O)[C@@H](N)CO)[C@@H](C)O)[C@@H](C)O)C(=O)O` [ML6], the koff in assay [1] (SPR, Table 10) amounted to 0.045 s⁻¹.

For AGLRSRAHLRRALA [ML5-1], in assay [1] (SPR, Table 10), the kon was 442 M⁻¹ s⁻¹ and the koff is 0.0346 s⁻¹.

As to DEALDLEVDKAATGLRTLTTLIRAL [ML7-1], in assay [1] (SPR, Table 10), the kon is 226 M⁻¹ s⁻¹ and the koff came to 0.0144 s⁻¹.

Consider DKAVSGLRSLTTLLRAL [ML8], for which, in assay [1] (SPR, Table 10), the kon was found to be 180 M⁻¹ s⁻¹ and the koff was 0.08 s⁻¹.

Turning to DKAVSGLRSLTTLLRALGAQKEAI [ML4], in assay [1] (SPR, Table 10), the kon came to 220 M⁻¹ s⁻¹ and the koff came out at 0.0022 s⁻¹.

With KGLRSLISLLRALGAQKEAI [ML6-1], in assay [1] (SPR, Table 10), the kon stood at 190 M⁻¹ s⁻¹ and the koff was determined as 0.03 s⁻¹.

Turning to KKAVSGLKTLTHILRALGAQKEAI [ML4-1], the kon in assay [1] (SPR, Table 10) was determined as 410 M⁻¹ s⁻¹.

As to LDLEVDKAVSGLRSLTTLLRALG [ML1-C1], in assay [1], the kon is 1750 M⁻¹ s⁻¹ and the koff amounted to 0.262 s⁻¹. Moreover, the “clustering of cell protective and proliferative effects relative to EPO” value in the assay on PC12 cells [2] is on record as “clustered as having similar effects as EPO”.

For LHVDKAVSGLRSLTTLLRAL [ML2], the koff in assay [1] (SPR, Table 10) came to 0.0044 s⁻¹.

“LHVLKAVSGLLTLTMIRRA (MLP-H) [ML1-H2 with two amino acids removed from both ends, for in vivo use]”: the “character of erythropoietin receptor activation” value with erythropoietin receptor is on record as “weak yet lasts for a prolonged period of time”. For the same molecule, in the assay with erythropoietin receptor (setting [4]), the “erythropoietin receptor activation after 30 minutes” value was “maintains activation even after 30 minutes”.

Turning to LQLHVDKAVSGLRSLTTLLRALG [ML1], in assay [1] (SPR, Table 10), the kon amounted to 1310 M⁻¹ s⁻¹ and the koff worked out at 0.0085 s⁻¹. In assay [1] (SPR, Table 11), the kon amounted to 1310 M⁻¹ s⁻¹ and the koff turned out to be 0.00847 s⁻¹. In addition, in the assay on PC12 cells [2], the “cell proliferative effects compared to EPO groups” value is “a large difference” and the “cell protective effects compared to EPO groups” value was “no large difference”.

Regarding LQLHVLKAVAGLRTLAMIRRALA [ML1-H3], in assay [1] (SPR, Table 11), the kon stood at 4160 M⁻¹ s⁻¹ and the koff worked out at 0.00477 s⁻¹. In the assay with PC12 cells [2], the “cell proliferative effects compared to EPO groups” value is recorded as “a large difference” and the “cell protective effects compared to EPO groups” value was “no large difference”.

Take LQLHVLKAVSGLLTHTTLLKALG [ML1-H1]: in assay [1] (SPR, Table 11), the kon was 1010 M⁻¹ s⁻¹ and the koff came out at 0.00794 s⁻¹. Further, in the assay on PC12 cells [2], the “cell proliferative effects compared to EPO groups” value was “a large difference” and the “cell protective effects compared to EPO groups” value is recorded as “no large difference”.

Take LQLHVLKAVSGLLTLTMIRRALG [ML1-H2]: in assay [1] (SPR, Table 11), the kon was found to be 3430 M⁻¹ s⁻¹ and the koff amounted to 0.00105 s⁻¹. Also, in the assay with PC12 cells [2], the “cell proliferative effects compared to EPO groups” value is “a large difference” and the “cell protective effects compared to EPO groups” value was “no large difference”.

For LQLHVLKRVSGLLSHTMLLKALG [ML1-1], in assay [1] (SPR, Table 10), the kon came to 5550 M⁻¹ s⁻¹ and the koff was 0.0059 s⁻¹.

On to LQRHVDKRVSGLRSLTTLLRALG [ML1-C2], for which, in assay [1] (SPR, Table 11), the kon was 1590 M⁻¹ s⁻¹ and the koff came out at 0.0188 s⁻¹. Besides, the “clustering of cell protective and proliferative effects relative to EPO” value in the assay on PC12 cells [2] is reported as “clustered as having similar effects as EPO”. The cell proliferation rate result with PC12 cells [3] was “cell proliferative effects to a degree similar to that of the natural erythropoietin”.

For the molecule LQRHVKKRVKGLKSLTTLLRALG [ML1-C3], in assay [1] (SPR, Table 11), the kon stood at 1100 M⁻¹ s⁻¹ and the koff amounted to 0.0109 s⁻¹. Further, the “clustering of cell protective and proliferative effects relative to EPO” value in the assay on PC12 cells [2] was “clustered as having similar effects as EPO”. The cell proliferation rate result in the assay on PC12 cells [3] was “cell proliferative effects to a degree similar to that of the natural erythropoietin”.

Consider NKAVAGLRSLTVN [ML8-1], for which, in assay [1] (SPR, Table 10), the koff came out at 0.15 s⁻¹.

Turning to “RHVKKRVKGLKSLTTLLRA (MLP-C) [ML1-C3 with two amino acids removed from both ends, for in vivo use]”, in the assay on mice (setting [5]), the hemoglobin content entry is listed as “significant increases”, the mean corpuscular hemoglobin result is given as “significant increases” and the “mean corpuscular hemoglobin concentration” value is “significant increases”. Further, the “red blood cell count” value in the assay on mice (100 μg/kg intraperitoneal daily over 14 days, FIG. 11B) is recorded as “significant increases”. For the same molecule, the platelet concentration result with mice (intraperitoneal daily over 14 days, FIG. 11D) is on record as “no large change”. Further, the hematocrit result in the assay on mice (intraperitoneal, 1 or 100 μg/kg daily over 14 days, FIG. 11A) is “significantly increased according to an administration dose”. For the same molecule, the “character of erythropoietin receptor activation” value with erythropoietin receptor was “brief but potent activation”. Further, in the assay with erythropoietin receptor (setting [4]), the “erythropoietin receptor activation after 30 minutes” value is reported as “decline thereafter” and the “time of maximum erythropoietin receptor activity (ERK1/2 phosphorylation)” value worked out at 30 min.

Regarding RHVQKAESGLRSLTKLLREL [ML2-1], in assay [1] (SPR, Table 10), the kon came to 310 M⁻¹ s⁻¹ and the koff stood at 0.0041 s⁻¹.

With SGLRSLTTLLRALG [ML5], in assay [1] (SPR, Table 10), the kon was 304 M⁻¹ s⁻¹ and the koff turned out to be 0.0001 s⁻¹.

TKVNFYAWKR [ML3]: in assay [1] (SPR, Table 10), the kon is 205 M⁻¹ s⁻¹ and the koff is 0.003 s⁻¹.

With TRVNYQAWKR [ML3-1], in assay [1] (SPR, Table 10), the kon was found to be 3080 M⁻¹ s⁻¹ and the koff was 0.013 s⁻¹.
